According to patent publication US20100021519A1, “Compositions and Methods for Treating or Preventing Diseases of Body Passageways” (priority 2006, published 2010):
Read-outs that look alike come from different tables or passages of the source.

Experiments:
liver and lung cancer = details: preliminary reports, cited from earlier work
[1] = Pilot in situ intra-tracheal infusion of THX-polymer formulation in rats immediately after termination; assay type: in vivo, rat; details: for THX tissue level, trachea: in situ infusion over 30 mins, 8 mg/kg, 200 μl, tissue harvested after 2 hours
Procedure: A pilot study of in situ intra-tracheal infusion was performed to estimate tracheal and lung tissue levels after in situ intra-tracheal infusion of THX-polymer formulation.
Method: Two rats (immediately after termination) were intra-tracheally infused over 30 mins with a THX-polymer formulation. The dose was 8 mg/kg and volume was 200 μl. After infusion these were wrapped for 2 hours in a warm heating pad. Tracheo-bronchial and lung tissue were harvested after wiping the lumen area of the tracheo-bronchial lumen with a tissue and spatula (to take off any adsorbed drug) at the end of 2 hours. Samples were frozen at −80 C until processed and analyzed by LC-MS. Sample extraction was conducted at AraVasc Inc. The processed samples were analyzed at Alta Analytical laboratories by LC-MS.

[2] = for THX level, plasma / THX tissue level, lung: rat; for THX level, plasma: intratracheal 3 × 4 mg/kg; for THX tissue level, lung: intratracheal THX-polymer formulation 3 × 4 mg/kg, LC-MS
Method: A screening formulation of thalidomide (THX) and polymer was used for the studies and the rat was chosen a preclinical model.
A pilot pharmacokinetic (PK) study was performed to estimate tracheo-bronchial and lung tissue levels after intra-tracheal application of THX-polymer formulation.
Method: A 10 mg/ml THX-polymer formulation was delivered (to anesthetized rats) at a dose of 4 mg/Kg at a volume of 100 μl dosed 3 times in 4 rats at 30 min intervals. The animals were anesthetized while dosing. […] Blood, tracheo-bronchial and lung tissue was sampled at 20 and 40 min past the third dose. Samples were frozen until processed for LC-MS analysis. […] Only the plasma and lung tissue were analyzed by LC-MS.
Method: A preliminary screening LCMS method was developed for quantitating THX in tissues and plasma. […] The equipment used was a SCIEX PE 3000.
Tissue and Plasma Extraction: The tissue was ground (glass-glass homogenizer) and extracted with 70:30 0.1% formic acid in acetonitrile and 0.1% formic acid in water at a 1:3 ratio of tissue to solvent. Plasma is extracted with the same solvent as the tissue at a 1:2 ratio of plasma to solvent. The supernatant extract was subject to LCMS analysis.

[3] = clinical trials in liver and lung cancer
[4] = rats, intra-tracheal THX-polymer formulation, 12 mg/kg dose (100 μl dosed 3 times)

## O=C1CCC(N2C(=O)c3ccccc3C2=O)C(=O)N1 (racemic) [THX, 2-(2,6-dioxo-3-piperidinyl)-1H-isoindole-1,3(2H)-dione]
Liver and lung cancer; [3]
  Disease control rates: 8%-57%
  Response rates: 4%-10%
Liver and lung cancer
  Toxicity in clinical trials (in words): associated with systemic toxicities
[1]; Rat 1
  THX tissue level, trachea: 211.21 μg/100 mg
[1]; Rat 2
  THX tissue level, trachea: 290.36 μg/100 mg
[1]; rats, in situ intra-tracheal infusion (0.5 hr), 8 mg/kg dose
  THX levels in tracheo-bronchial and lung tissue (in words): High levels
[2]; 100 μl, 20 mins post 3rd dose, unit of the table head
  THX level, plasma: 0.19 ng/mL
[2]; 100 μl, 40 mins post 3rd dose, unit of the table head
  THX level, plasma: 0.44 ng/mL
[2]; 20 mins post 3rd dose, unit of the text
  THX level, plasma: 190 ng/mL
[2]; 40 mins post 3rd dose, unit of the text
  THX level, plasma: 440 ng/mL
[2]; 100 μl, 20 mins post 3rd dose
  THX tissue level, lung: 21.80 μg/100 mg
[2]; 100 μl, 40 mins post 3rd dose
  THX tissue level, lung: 16.81 μg/100 mg
[2]; rats, intra-tracheal THX-polymer formulation, 12 mg/kg dose
  Distribution/diffusion into the lung tissue and vasculature (in words): good distribution/diffusion into the lung tissue and vasculature
[2]; [4]
  THX levels in lung tissue (in words): High levels
  THX levels in plasma (in words): low levels
